Data published in ChEMBL document CHEMBL6083259, “Discovery of quinazoline-benzothiazole derivatives as novel potent protease-activated receptor 4 antagonists with improved pharmacokinetics and low bleeding liability” (Eur J Med Chem, 2024).
Activity calls are given as the source filed them. The rule behind the calls is not given here.

Experiments:
[1] = Protein binding in rat plasma at 10 uM incubated for 6 hrs by LC-MS/MS analysis; type: ADME, cell-free; conditions: read-out: PPB (converted)
[2] = target: T1, Proteinase-activated receptor 4 (Homo sapiens, UniProt Q96RI0); assay: Antagonist activity at human PAR4 expressed in HEK293/Galpha15 cells assessed as inhibition of AYPGKF-NH2-induced calcium mobilization incubated for 30 mins by FLIPR assay; type: functional, cell-based
T1 sequence (Q96RI0 whole entry): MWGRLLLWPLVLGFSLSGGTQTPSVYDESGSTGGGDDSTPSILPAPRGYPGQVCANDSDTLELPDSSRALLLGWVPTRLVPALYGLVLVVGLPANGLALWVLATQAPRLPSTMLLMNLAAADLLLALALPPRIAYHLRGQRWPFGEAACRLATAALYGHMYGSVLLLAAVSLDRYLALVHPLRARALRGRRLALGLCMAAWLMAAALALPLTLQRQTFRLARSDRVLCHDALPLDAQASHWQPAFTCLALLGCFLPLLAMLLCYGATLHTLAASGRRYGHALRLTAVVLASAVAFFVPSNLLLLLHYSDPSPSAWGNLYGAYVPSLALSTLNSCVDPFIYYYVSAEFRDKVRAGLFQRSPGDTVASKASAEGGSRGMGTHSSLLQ

[3] = Tmax in male Sprague-Dawley rat at 2 mg/kg, po measured after 24 hrs by LC-MS/MS analysis; type: ADME, organism-based; conditions: in vivo
[4] = Metabolic stability in rat liver microsomes assessed as half-life at 1 uM measured upto 120 mins in presence of NADPH by LC-MS/MS analysis; type: ADME, Microsome
[5] = Clearance in male Sprague-Dawley rat at 2 mg/kg, po measured after 24 hrs by LC-MS/MS analysis; type: ADME, organism-based; conditions: in vivo
[6] = target: T2, Proteinase-activated receptor 1 (Homo sapiens, UniProt P25116); assay: Antagonist activity at human PAR1 expressed in HEK293/Galpha15 cells assessed as inhibition of SFFLRR-NH2-induced calcium mobilization incubated for 30 mins by FLIPR assay; type: functional, cell-based
T2 sequence (P25116 whole entry): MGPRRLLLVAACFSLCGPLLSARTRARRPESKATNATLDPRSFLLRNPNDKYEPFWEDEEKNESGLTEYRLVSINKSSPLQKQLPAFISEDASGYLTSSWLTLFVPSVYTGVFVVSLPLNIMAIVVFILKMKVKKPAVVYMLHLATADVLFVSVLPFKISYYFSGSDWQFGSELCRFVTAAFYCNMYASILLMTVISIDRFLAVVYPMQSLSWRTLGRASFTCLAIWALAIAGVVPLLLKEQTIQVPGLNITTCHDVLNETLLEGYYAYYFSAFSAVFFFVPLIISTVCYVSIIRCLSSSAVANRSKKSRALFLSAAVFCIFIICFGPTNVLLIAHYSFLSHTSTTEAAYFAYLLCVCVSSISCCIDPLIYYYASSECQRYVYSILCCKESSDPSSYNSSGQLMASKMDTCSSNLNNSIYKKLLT

[7] = AUC (0 to last) in male Sprague-Dawley rat at 2 mg/kg, po measured after 24 hrs by LC-MS/MS analysis; type: ADME, organism-based; conditions: in vivo
[8] = Protein binding in human plasma at 10 uM incubated for 6 hrs by LC-MS/MS analysis; type: ADME, cell-free; conditions: read-out: PPB (converted)
Plasma [9] = assay: Inhibition of SFFLLRN-NH2 peptide-induced platelet aggregation in human platelet rich plasma at 10 uM preincubated for 5 mins followed by peptide addition and measured after 5 mins by aggregometer; type: functional, cell-free
[10] = Half-life in male Sprague-Dawley rat at 2 mg/kg, po measured after 24 hrs by LC-MS/MS analysis; type: ADME, organism-based; conditions: in vivo
Plasma [11] = assay: Inhibition of U46619-induced platelet aggregation in human platelet rich plasma at 10 uM preincubated for 5 mins followed by U46619 addition and measured after 5 mins by aggregometer; type: functional, cell-free
[12] = Antagonist activity at […] expressed in HEK293/Galpha15 cells assessed as inhibition of 2-furoyl-LIGRLO-NH2-induced calcium mobilization incubated for 30 mins by FLIPR assay; type: cell-based; conditions: HEK293/Galpha15, 0.5 h
[13] = Cmax in male Sprague-Dawley rat at 2 mg/kg, po measured after 24 hrs by LC-MS/MS analysis; type: ADME, organism-based; conditions: in vivo
[14] = Cytotoxicity against HEK293 cells assessed as reduction in cell viability incubated for 48 hrs by MTT assay; type: toxicity, cell-based; conditions: human
[15] = Metabolic stability in human liver microsomes assessed as half-life at 1 uM measured upto 120 mins in presence of NADPH by LC-MS/MS analysis; type: ADME, Microsome
[16] = Clearance in male Sprague-Dawley rat at 0.5 mg/kg, iv measured after 24 hrs by LC-MS/MS analysis; type: ADME, organism-based; conditions: in vivo
[17] = Half-life in male Sprague-Dawley rat at 0.5 mg/kg, iv measured after 24 hrs by LC-MS/MS analysis; type: ADME, organism-based; conditions: in vivo
[18] = Toxicity in male C57BL/6 mouse assessed as prolongation of bleeding time at 10 mg/kg, po measured after 1.5 hrs by tail bleeding assay; type: organism-based; conditions: in vivo
Plasma [19] = assay: Inhibition of thrombin-induced platelet aggregation in human platelet rich plasma at 10 uM preincubated for 5 mins followed by thrombin addition and measured after 5 mins by aggregometer; type: functional, cell-free; conditions: time 10.0 min
Plasma [20] = assay: Inhibition of […] peptide-induced platelet aggregation in human platelet rich plasma at 10 uM preincubated for 5 mins followed by peptide addition and measured after 5 mins by aggregometer; type: functional, cell-free; conditions: time 10.0 min
[21] = target: T3, Proteinase-activated receptor 4 (Homo sapiens) (UniProt Q96RI0); assay: Antagonist activity at PAR4 in human platelet rich plasma assessed as inhibition of gamma-PAR4 agonist peptide (AYPGKF-NH2)-induced platelet aggregation at 200 nM preincubated for 5 mins followed by peptide addition and measured after 5 mins by aggregometer relative to control; type: cell-based; conditions: filed as antagonist, time 10.0 min
T3 sequence (whole entry): T1 sequence (Q96RI0 whole entry)

Plasma [22] = assay: Inhibition of collagen-induced platelet aggregation in human platelet rich plasma at 10 uM preincubated for 5 mins followed by collagen addition and measured after 5 mins by aggregometer; type: functional, cell-free
Plasma [23] = assay: Inhibition of ADP-induced platelet aggregation in human platelet rich plasma at 10 uM preincubated for 5 mins followed by ADP addition and measured after 5 mins by aggregometer; type: functional, cell-free
[24] = Cmax in male Sprague-Dawley rat at 0.5 mg/kg, iv measured after 24 hrs by LC-MS/MS analysis; type: ADME, organism-based; conditions: in vivo
[25] = AUC (0 to last) in male Sprague-Dawley rat at 0.5 mg/kg, iv measured after 24 hrs by LC-MS/MS analysis; type: ADME, organism-based; conditions: in vivo
[26] = Oral bioavailability in male Sprague-Dawley rat at 2 mg/kg measured after 24 hrs by LC-MS/MS analysis; type: ADME, organism-based; conditions: in vivo
[27] = Tmax in male Sprague-Dawley rat at 0.5 mg/kg, iv measured after 24 hrs by LC-MS/MS analysis; type: ADME, organism-based; conditions: in vivo
[28] = Half-life in iv dosed male Sprague-Dawley rat measured after 24 hrs by LC-MS/MS analysis; type: ADME, organism-based; conditions: in vivo
[29] = AUC (0 to last) in po dosed male Sprague-Dawley rat measured after 24 hrs by LC-MS/MS analysis; type: ADME, organism-based; conditions: in vivo
[30] = Half-life in po dosed male Sprague-Dawley rat measured after 24 hrs by LC-MS/MS analysis; type: ADME, organism-based; conditions: in vivo
[31] = Oral bioavailability in male Sprague-Dawley rat measured after 24 hrs by LC-MS/MS analysis; type: ADME, organism-based; conditions: in vivo
[32] = Antagonist activity at PAR4 in mouse washed platelets assessed as inhibition of gamma-PAR4 agonist peptide (AYPGKF-NH2)-induced platelet aggregation preincubated for 5 mins followed by peptide addition and measured after 5 mins by aggregometer
[33] = Clearance in iv dosed male Sprague-Dawley rat measured after 24 hrs by LC-MS/MS analysis; type: ADME, organism-based; conditions: in vivo
[34] = Cmax in po dosed male Sprague-Dawley rat measured after 24 hrs by LC-MS/MS analysis; type: ADME, organism-based; conditions: in vivo
[35] = Cmax in iv dosed male Sprague-Dawley rat measured after 24 hrs by LC-MS/MS analysis; type: ADME, organism-based; conditions: in vivo
[36] = Tmax in iv dosed male Sprague-Dawley rat measured after 24 hrs by LC-MS/MS analysis; type: ADME, organism-based; conditions: in vivo
[37] = AUC (0 to last) in iv dosed male Sprague-Dawley rat measured after 24 hrs by LC-MS/MS analysis; type: ADME, organism-based; conditions: in vivo
[38] = Tmax in po dosed male Sprague-Dawley rat measured after 24 hrs by LC-MS/MS analysis; type: ADME, organism-based; conditions: in vivo

SMILES	fraction unbound at 6 h, 10 µM [1]	IC50 [2] [µM]	Tmax [3] [h]	half-life at 1 µM [4] [h]	CL/F [5] [mL/min/kg]	IC50 [6] [µM]	AUC(0-t) at 24 h [7] [ng·h/mL]	fraction unbound at 6 h, 10 µM [8]	IC50 (Plasma [9]) [µM]	half-life [10] [h]	IC50 (Plasma [11]) [µM]	IC50 [12] [µM]	Cmax [13] [ng/mL]	IC50 at 48 h [14] [µM]	half-life at 1 µM [15] [h]	clearance [16] [mL/min/kg]	half-life [17] [h]	Activity [18]	inhibition (Plasma [19])	inhibition [21] [%]	further results
COc1ncc2c(-c3nc4cc(F)c5c(c4s3)C[C@H](COC(=O)Nc3cccc(C#N)c3)O5)cc(C)cc2n1	0.0002	0.00172	1.67	1.49	25.4	> 3.16	1220	0.0005	> 10	5.16	> 10	> 1	214	> 20	4.16	12.8	5.13	Non-toxic	Active	91.2	inhibition (Plasma [20]): Active; IC50 (Plasma [22]): > 10 µM; IC50 (Plasma [23]): > 10 µM; Cmax [24]: 394 ng/mL; AUC(0-t) at 24 h [25]: 636 ng·h/mL; bioavailability [26]: 50.5%; Tmax [27]: 4.8 min
COCc1ncc2c(-c3nc4cc(F)c(OCCOC(=O)Nc5cc(F)cc(C#N)c5)cc4s3)cc(C)cc2n1	0.0011	0.0056	1	2.12	65.3	> 3.16	488	0.001	> 10	1.78	> 10	> 1	146	> 20	0.747	9.5	2.2		Active	90.3	inhibition (Plasma [20]): Active; IC50 (Plasma [22]): > 10 µM; IC50 (Plasma [23]): > 10 µM; Cmax [24]: 944 ng/mL; AUC(0-t) at 24 h [25]: 950 ng·h/mL; bioavailability [26]: 13.2%; Tmax [27]: 4.8 min
COc1cc(Cl)c2nc(-c3cc(C)cc4c(=O)n(C)cnc34)sc2c1				0.532		> 3.16						> 1		> 20	0.71			Non-toxic		94.5	half-life [28]: 1.4 h; AUC(0-t) at 24 h [29]: 32 ng·h/mL; half-life [30]: 2.16 h; bioavailability [31]: 3.71%; IC50 [32]: 0.084 µM; clearance [33]: 57.7 mL/min/kg; Cmax [34]: 6.4 ng/mL; Cmax [35]: 571 ng/mL; Tmax [36]: 4.8 min; AUC(0-t) at 24 h [37]: 288 ng·h/mL; Tmax [38]: 2.83 h
COc1ncc2c(-c3nc4cc(F)c5c(c4s3)C[C@H](COC(=O)Nc3cc(F)cc(C#N)c3)O5)cc(C)cc2n1	0.0001	0.00096	1	1.73	37.7	> 3.16	865	0.0004	> 10	7.05	> 10	> 1	170	> 20	4.71	9.8	6.89	Non-toxic	Active	94.7	inhibition (Plasma [20]): Active; IC50 (Plasma [22]): > 10 µM; IC50 (Plasma [23]): > 10 µM; Cmax [24]: 519 ng/mL; AUC(0-t) at 24 h [25]: 808 ng·h/mL; bioavailability [26]: 27.3%; Tmax [27]: 4.8 min
